Assay results taken from patent US20240336566A1, “CRYSTALLINE FORMS OF A COMPOUND FOR THE TARGETED DEGRADATION OF THE ANDROGEN RECEPTOR” (Arvinas Operations, Inc., priority 2023, published 2024).
Where two headings read alike, the source gives them in different places.

Test: Primary salt screen: XRPD post temperature cycling/evaporation, post drying and post storage at 40° C./75% RH
Format: physicochemical
Procedure: • 30 mg samples of Compound A were weighed out into 2 mL screw cap sample vials for 96 experiments. To these, 200 μL of the appropriate solvent system was added to dissolve the material or form a slurry. See Table 16 for the solvent systems selected for the primary salt screen.
• 1.05 eq. of solid counterions were weighed into six separate vials each and 1 molar stock solutions were prepared for liquid counterions in 5 mL of THF. See Table 17 for selected counterions and mass/volume needed for 1.05 eq. additions. • 100 μL of the appropriate solvent was added to the solid counterions.
The solution/slurry of counterion was added to the solution/slurry of the free base material.
• The samples were placed in an incubator shaker to temperature cycle between ambient and 40° C. over 4 hour cycles. • After ca. 72 hours of temperature cycling, observations were noted, see Table 19.
• Where slurries were obtained, the solids were isolated via centrifugation. Solids and gels were analyzed by XRPD.
Any samples that were clear solutions after temperature cycling were left to evaporate at ambient conditions. See Table 20 for observations made after evaporation. Solids obtained through evaporation were analyzed by XRPD.
• The samples obtained from temperature cycling were dried under vacuum at 40° C. for ca. 20 hours while the samples obtained from evaporation were dried under vacuum at 40° C. for ca. 4 hours. […]

[1] = Compound A + 1.05 eq. counterion (= label), 1,4-Dioxane
[2] = Compound A + 1.05 eq. counterion (= label), 1,4-Dioxane, dried under vacuum at 40° C.
[3] = Compound A + 1.05 eq. counterion (= label), 1,4-Dioxane, stored ca. 20 hours
[4] = Compound A + 1.05 eq. counterion (= label), DCM
[5] = Compound A + 1.05 eq. counterion (= label), DCM:Methanol (50:50 % v/v)
[6] = Compound A + 1.05 eq. counterion (= label), DCM:Methanol (50:50 % v/v), dried under vacuum at 40° C.
[7] = Compound A + 1.05 eq. counterion (= label), DCM:Methanol (50:50 % v/v), stored ca. 20 hours
[8] = Compound A + 1.05 eq. counterion (= label), DCM, dried under vacuum at 40° C.
[9] = Compound A + 1.05 eq. counterion (= label), DCM, stored ca. 20 hours
[10] = Compound A + 1.05 eq. counterion (= label), DMSO:Water (50:50 % v/v)
[11] = Compound A + 1.05 eq. counterion (= label), DMSO:Water (50:50 % v/v), dried under vacuum at 40° C.
[12] = Compound A + 1.05 eq. counterion (= label), DMSO:Water (50:50 % v/v), stored ca. 20 hours
[13] = Compound A + 1.05 eq. counterion (= label), THF
[14] = Compound A + 1.05 eq. counterion (= label), THF:Water (98:2 % v/v)
[15] = Compound A + 1.05 eq. counterion (= label), THF:Water (98:2 % v/v), dried under vacuum at 40° C.
[16] = Compound A + 1.05 eq. counterion (= label), THF:Water (98:2 % v/v), stored ca. 20 hours
[17] = Compound A + 1.05 eq. counterion (= label), THF, dried under vacuum at 40° C.
[18] = Compound A + 1.05 eq. counterion (= label), THF, stored ca. 20 hours

SMILES | XRPD results post temperature cycling and evaporation [1] | XRPD results post drying [2] | XRPD results post 40° C./75% RH [3] | XRPD results post temperature cycling and evaporation [4] | XRPD results post temperature cycling and evaporation [5] | XRPD results post drying [6] | XRPD results post 40° C./75% RH [7] | XRPD results post drying [8] | XRPD results post 40° C./75% RH [9] | XRPD results post temperature cycling and evaporation [10] | XRPD results post 40° C./75% RH [12] | XRPD results post temperature cycling and evaporation [13] | XRPD results post temperature cycling and evaporation [14] | XRPD results post drying [15] | XRPD results post 40° C./75% RH [16] | XRPD results post drying [17] | XRPD results post 40° C./75% RH [18] | other results
Cc1ccc(S(=O)(=O)O)cc1 [p-Toluenesulfonic acid] | A t | A t | A t | A e | A e | A e | A e | A e | A e | A t | A t | S t | A e | A e | A e |  |  | XRPD results post drying [11]: A t
O=P(O)(O)O [Phosphoric acid] | A t | A t | A t | S t * | S t * |  |  |  | A t h |  |  | S t | S t |  |  |  |  | 
O=C(O)C(O)C(O)C(=O)O (stereo not drawn) [l-Tartaric acid] | A t | A t | A t | A e | A e | A e | A e | A e | A e | A t |  | A e | A e | A e | A e | A e | A e | 
CS(=O)(=O)O [Methanesulfonic acid] | A t | A t | A t | A e |  |  |  | A e | A e | A t | A t |  | A e | A e | A e |  |  | XRPD results post drying [11]: A t
O=S(=O)(O)c1ccccc1 [Benzenesulfonic acid] | A t | A t | A t | A e |  |  |  | A e | A e | A e | A e h | A t | S e |  |  | A t | A t | 
O=C(O)C[C@H](O)C(=O)O [l-Malic acid] |  |  |  | A e |  |  |  | A e | A e | A t |  | A e |  |  |  | A e | A e | 
Cl [Hydrochloric acid] |  |  |  | t S | t S |  |  |  |  |  |  |  |  |  |  |  |  | 
O=C(O)/C=C/C(=O)O [Fumaric acid] | S t * | A t d | A t | A e | A e | A e | A e | A e | A e |  |  | A e |  |  |  | A e | A e | 
O=C(O)CC(=O)O [Malonic acid] |  |  |  | A e | A e | A e | A e | A e | A e | A t |  | A e | A e | A e | A e | A e | A e | 
O=C(O)c1ccccc1 [Benzoic acid] |  |  |  | A e |  |  |  | A e | A e |  |  |  |  |  |  |  |  | 
N[C@@H](CCC(=O)O)C(=O)O [l-Glutamic] |  |  |  | C e |  |  |  | C e | C e | A t |  |  |  |  |  |  |  | 
O=C(O)/C=C\C(=O)O [Maleic acid] | S t * |  | A t h | C e | A e | A e | A e | A e d | A e | A t | A t | A e | A e | A e | A e | A e | A e | XRPD results post drying [11]: A t
O=S(=O)(O)O [Sulfuric acid] |  |  |  |  |  |  |  |  |  |  |  |  |  |  |  |  |  | XRPD results post 40° C./75% RH: A t and A e; XRPD results post drying: A t and A e; XRPD results post temperature cycling and evaporation: A t and A e
CC(=O)O [Acetic acid] |  |  |  |  |  |  |  |  |  |  | A t h |  |  |  |  |  |  | 
O=C(O)CCC(=O)O [Succinic acid] |  |  |  | C e |  |  |  | A e d | C e h | A t |  |  |  |  |  |  |  | 
O=C(O)CC(O)(CC(=O)O)C(=O)O [Citric acid] | A t | A t | A t | A e | A e | A e | A e | A e | A e | A t | A t | A e | A e | A e | A e | A e | A e | XRPD results post drying [11]: A t
